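48-hour exposure; five concentrations; linearly interpolated endpoints. GI50 is the concentration that inhibits growth by half.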 Calls of active or inactive are those of the source. No stated cut-off is given here; in the data, active = GI50 up to about 1.1 µM and inactive = higher.
Legend:
Assay in all cases: growth of human tumour cells (NCI), 48 h
RPMI-8226 = system: RPMI-8226
HCC 2998 = system: HCC 2998
UACC-62 = system: UACC-62
OVCAR-8 = system: OVCAR-8
SK-MEL-28 = system: SK-MEL-28
OVCAR-5 = system: OVCAR-5
MCF7 = system: MCF7
OVCAR-4 = system: OVCAR-4
COLO 205 = system: COLO 205
OVCAR-3 = system: OVCAR-3
UO-31 = system: UO-31
K562 = system: K562
NCI-H226 = system: NCI-H226
SNB-75 = system: SNB-75
SF-539 = system: SF-539
CCRF-CEM = system: CCRF-CEM
NCI-H522 = system: NCI-H522
SK-MEL-2 = system: SK-MEL-2
Malme-3M = system: Malme-3M
NCI-H23 = system: NCI-H23
786-0 = system: 786-0
ACHN = system: ACHN
U-251 = system: U-251
SW-620 = system: SW-620
MDA-N = system: MDA-N
MDA-MB-231 = system: MDA-MB-231
SK-OV-3 = system: SK-OV-3
TK-10 = system: TK-10
HOP-62 = system: HOP-62
SNB-19 = system: SNB-19
CAKI-1 = system: CAKI-1
M14 = system: M14
IGROV-1 = system: IGROV-1
DU-145 = system: DU-145
RXF 393 = system: RXF 393
HL-60 = system: HL-60
UACC-257 = system: UACC-257
HOP-92 = system: HOP-92
SN12C = system: SN12C
KM12 = system: KM12
SK-MEL-5 = system: SK-MEL-5
Hs-578T = system: Hs-578T
MOLT-4 = system: MOLT-4
BT-549 = system: BT-549
HT-29 = system: HT-29
SF-268 = system: SF-268
A549 = system: A549
PC-3 = system: PC-3
NCI/ADR-RES = system: NCI/ADR-RES
LOX IMVI = system: LOX IMVI
NCI-H460 = system: NCI-H460
HCT-116 = system: HCT-116
T47D = system: T47D
A498 = system: A498
SF-295 = system: SF-295
SR = system: SR
MDA-MB-435 = system: MDA-MB-435

Measured: GI50

N#CCN1CCCN(CC#N)CCN(CC#N)CCCN(CC#N)CC1
inactive: RPMI-8226 54.5 µM | HCC 2998 > 100 µM | UACC-62 > 100 µM | OVCAR-8 > 100 µM | SK-MEL-28 > 100 µM | OVCAR-5 > 100 µM | MCF7 > 100 µM | OVCAR-4 > 100 µM | COLO 205 11.4 µM | OVCAR-3 > 100 µM | UO-31 > 100 µM | K562 > 100 µM | NCI-H226 > 100 µM | SNB-75 > 100 µM | SF-539 > 100 µM | CCRF-CEM 89.9 µM | NCI-H522 > 100 µM | SK-MEL-2 > 100 µM | Malme-3M > 100 µM | NCI-H23 > 100 µM | 786-0 > 100 µM | ACHN > 100 µM | U-251 > 100 µM | SW-620 86.9 µM | MDA-N > 100 µM | MDA-MB-231 > 100 µM | SK-OV-3 > 100 µM | TK-10 > 100 µM | HOP-62 > 100 µM | SNB-19 > 100 µM | CAKI-1 > 100 µM | M14 > 100 µM | IGROV-1 > 100 µM | DU-145 > 100 µM | RXF 393 > 100 µM | HL-60 43.8 µM | UACC-257 > 100 µM | HOP-92 > 100 µM | SN12C > 100 µM | KM12 39.9 µM | SK-MEL-5 > 100 µM | Hs-578T > 100 µM | MOLT-4 > 100 µM | BT-549 > 100 µM | HT-29 > 10 µM | SF-268 > 100 µM | A549 > 100 µM | PC-3 > 100 µM | NCI/ADR-RES > 100 µM | LOX IMVI 16.7 µM | NCI-H460 > 100 µM | HCT-116 > 100 µM | T47D > 100 µM | A498 > 100 µM | SF-295 > 100 µM | SR > 100 µM | MDA-MB-435 > 100 µM

Reference: ChEMBL document CHEMBL1201862, “PubChem BioAssay data set” (2004)
